# Assay results reported in a melting point compilation (Tetko et al.; mined from patent text by program, amines drawn as free bases though some values may be those of a salt).
# Residues, ends and D or L forms follow the SMILES beside them. *: point of attachment. Cbz = O=C(OCc1ccccc1)*; tBu = CC(C)(C)*
row,melting point [°C],SMILES
1,222 to 224,O=C1OC2(CCN(C(=O)Nc3cnc(-c4ccccc4)cn3)CC2)c2cc(F)ccc21
2,82 to 83,Fc1ccccc1C1CCN(Cc2ccccc2)CCN1Cc1ccccc1 (configuration not stated)
3,195 to 196,CC(C)(C)C(NC(=O)c1ccc(F)cc1)NC(=NC#N)Nc1cccnc1 (configuration not stated)
4,80 to 86,CC#CCOc1ccc(S(=O)(=O)NC(C(=O)NO)c2ccc(OCCN3CCOCC3)cc2)cc1 (configuration not stated)
5,104 to 105,C=CCC(C(=O)NC)c1ccc(F)cc1 (configuration not stated)
6,114 to 116,CC(=O)C(C(=O)NS(=O)(=O)c1ccc(C)cc1)C(=O)c1ccccc1 (configuration not stated)
7,107 to 110,NN=CNc1nc(CSCCN=CNS(=O)(=O)c2ccc(Br)cc2)cs1
8,110 to 112,COc1cc(NS(C)(=O)=O)c(I)cc1N
9,202,Nc1nc2c(ncn2COCCCP(=O)(O)O)c(=O)[nH]1
10,258 to 259,CCNc1nc(NC(C)C)cc(NS(=O)(=O)c2ccc(N)cc2)n1
11,150 to 151,CC(C)(CC(C)(c1ccc(O)cc1)c1ccc(O)cc1)c1ccc(O)cc1
12,223,CC1CCc2nc(=O)c(C(N)=O)cn21 (configuration not stated)
13,88 to 89,Cc1cccc(C(O)CNC(N)=C(CCSCc2cc(C)c(CN(C)C)s2)[N+](=O)[O-])c1 (configuration not stated)
14,104 to 106,C=CCCCOc1ccc2c(=O)cc(-c3ccccc3)oc2c1
15,150,Cc1ccc(C(N)(c2ccc3c(c2)c(-c2cccc(Cl)c2)nc2nnnn23)c2cncn2C)cc1 (configuration not stated)
16,157 to 159,O=C(NCCNc1c(Cl)cncc1Cl)C1CCN(c2c(Cl)cncc2Cl)CC1
17,> 260,Fc1ccccc1CN[C@H]1CCCN[C@H]1c1ccccc1 (relative stereo)
18,173 to 174,CCOC(=O)NNc1ccc(-c2ccc(F)cc2)nn1
19,158 to 160,COc1ccc2c(c1)C(c1ccncc1)=Nc1cc(Cl)ccc1O2
20,213 to 216,O=C1N(C(c2ccccc2)c2ccccc2)c2ccccc2C12COc1cc(F)c(F)cc12 (configuration not stated)

row,melting point [°C],SMILES
1,127 to 128,O=C1CCCCc2cc(OCc3ccccc3)c(O)cc21
2,141,CCOC(=O)c1ccc(-c2ccc(OCCCNC)c(-c3ccc4c(c3)C(C)(C)CCC4(C)C)c2)cc1
3,215 to 216,Cc1c(C(=O)Nc2ccc(N3CCC(N4CCOCC4)CC3)c(C#N)c2)cnn1-c1cccc(C(F)(F)F)c1
4,277 to 280,O=C1Nc2cc(C(F)(F)F)ccc2C1c1ncnc2c1cnn2C1CCCCC1 (configuration not stated)
5,148 to 151,CS(=O)(=O)Nc1ccc([N+](=O)[O-])cc1Br
6,181,CN(CC(=O)O)C(=S)c1cccc2c(Br)cccc12
7,143 to 148,O=C1NCCc2c(Cl)cccc21
8,85 to 89,O=C(Cl)c1ccc(Oc2ccc(Oc3ccccc3)cc2)cc1
9,160 to 165,CN(C)Cc1nc(C(=O)O)nn1-c1ccc(Cl)cc1C(=O)c1ccccc1
10,107 to 110,O=C(O)CCCCCCCCCCCNC(=O)CCCCCCCCCCI
11,136 to 139,Cc1cc(Oc2cc(C)c([N+](=O)[O-])cn2)n[nH]1
12,270 to 271,COc1ccc(C=NC2CCN(c3cc4c(cc3F)c(=O)c(C(=O)O)cn4-c3ccc(F)cc3)C2)cc1 (configuration not stated)
13,160 to 162,Nc1nc(Cl)c2ncn(C3C=CC(O)C3)c2n1 (configuration not stated)
14,114 to 116,C(/CN1CCOCC1)=C1/CCCc2c1cnn2-c1ccccc1
15,174 to 175,CCCn1c(=O)c(-c2ccccc2)c2n(c1=O)C=CCS2=O (configuration not stated)
16,119 to 121,COC(=O)CCC#Cc1ccc(O)c(CCC(=O)OC)n1
17,195 to 197,Cc1cc(C)nc(NC(=O)NS(=O)(=O)c2ccccc2C(Cl)Cl)n1
18,108 to 110,O=C(CNC(=O)c1cc([N+](=O)[O-])c(F)cc1Cl)OCc1ccccc1
19,169 to 170,CCCc1nc(C(C)(C)O)c(-c2nnn[nH]2)n1Cc1ccc(-c2ccccc2C(=O)C(=O)O)cc1

# The next lines start with the molecule.
row,SMILES,melting point [°C]
1,CC(=O)Oc1cc(CNC=C2C(=O)NC(=O)c3ccc(Br)cc32)cc(OC(C)=O)c1,257 to 258
2,Cc1nc2cccc(OCC(C)(C)NC(=O)CN3CCOCC3)c2c(N)c1C(=O)O,173 to 175
3,COC(=O)CC(O)CC(=O)C=Cc1ccc(Cl)cc1Cl (configuration not stated),77 to 79
4,CC(=O)OCC1OC(n2cc(F)c(=O)[nH]c2=O)CC1OC(C)=O (configuration not stated),151
5,CC(=O)Nc1cccc(-c2nc3ncccc3[nH]2)c1,> 250
6,Oc1ccc2c(c1)CCCC2n1cc[nH]c1=S (configuration not stated),213 to 215
7,CCOC(=O)c1ccc(C2CC(=O)N(C)C2C(O)c2ccc(-c3ccccc3)s2)cc1 (configuration not stated),177 to 179
8,CS(=O)(=O)C(C#N)=Cc1ccc2[nH]ccc2c1,184 to 185
9,CC(=O)Nc1nc2c(Oc3cc(N4CCN([C@H](C)c5ccc(F)cc5)CC4)ncn3)cccc2s1,244 to 246
10,COc1ccc([C@]2(C)CNC(=O)O2)cc1O,142
11,CCOC(=O)c1cn(CCc2cccc(C(F)(F)F)c2)c2cc(C3CC3)nn2c1=O,140 to 145
12,CCSC=C1C(=O)OC(C)(C)OC1=O,52 to 54
13,COC(=O)[C@@H]1C[C@H](N=[N+]=[N-])C(=O)[C@H]2[C@@]1(C)CC[C@H]1C(=O)O[C@H](c3ccoc3)C[C@]21C,200 to 203
14,CCOC(=O)c1c(Sc2ccccc2)n(C2CC2)c2c(F)c(F)c(F)cc2c1=O,135 to 137
15,CCSc1cc(C)nc(SCC)c1NC(=O)CCCCCCCSc1nc2c(C)c(Cl)cc(C(C)C)c2o1,82 to 84
16,CNC(=O)Cn1nnnc1S,167 to 168
17,CN(C)C(=O)Nc1coc2ccccc2c1=S,108
18,CCOP(=O)(OCC)C1CNc2ccc(C(F)(F)F)cc2C1 (configuration not stated),112
19,CC(C)n1cc(I)c2c(Cl)ncnc21,116 to 118
20,CCCNc1nc(N)nc(N(CCC)c2ccc(OC)c(F)c2)n1,53 to 55

row,SMILES,melting point [°C]
1,COc1cc(Br)c2nc(-c3ccc(OC)c(F)c3)cc(Cl)c2c1,176 to 177
2,COC(=O)C(Cc1ccccc1)NC(=O)C(Cc1ccc(OC(C)(C)C)cc1)NC(=O)OCc1ccccc1 (configuration not stated) (Cbz-Tyr(tBu)-Phe-OMe; configuration not given here),106 to 107
3,N#Cc1c[nH]nc1-c1ccc([N+](=O)[O-])o1,238 to 239
4,CCCCC(Oc1c(Br)cc(-c2ccc(-c3c(Cc4ccccc4)oc4ccccc34)cc2)cc1Br)C(=O)O (configuration not stated),75 to 76
5,CC(=O)SCC1CCCCCCC(C(=O)N2C(=O)OCC2Cc2ccccc2)NC1=O (configuration not stated),65 to 66
6,O=C(Nc1ccc(C2CCC(O)C2)cc1)OCc1ccccc1 (configuration not stated),99 to 101
7,CON=C(C(=O)O)c1nsc(NC=O)n1,185 to 186
8,O=C(c1cc(F)ccc1C(F)(F)F)N1CCN(c2ccc(-c3ncc(-c4ccccc4)o3)nn2)CC1,122 to 125
9,Oc1ccc(Sc2cccc(F)n2)cc1,123 to 124
10,CCN1CCC(N(C)S(=O)(=O)c2ccc(Nc3nccc(Nc4ccc(F)cc4)n3)cc2)CC1,162 to 163
11,NC1=NC(c2ccc(OC(F)(F)F)cc2)(c2ccc(F)c(-c3cncnc3)c2)C(=O)N1C(F)F (configuration not stated),82 to 94
12,Cc1ccc(C(=O)O)c(Oc2ccc3c(c2)c(C(=O)O)c(CC(=O)O)n3-c2ccc(OC(C)C)cc2)n1,179
13,CCNc1ccccc1S(=O)(=O)C[N+](=O)[O-],82
14,C[C@H]1C[C@@H](Nc2ccccc2)c2ccccc2N1C(=O)c1ccccn1 (relative stereo),157
15,Cc1cc(C(=O)O)ncc1C(c1c(F)ccc(F)c1F)S(=O)(=O)CCC(F)(F)F (configuration not stated),85 to 87
16,O=C(N[C@@H](Cc1ccccc1)C(=O)NC(O)C(=O)O)OCc1ccccc1 (some centres not stated),117 to 127
17,Cn1c(=O)cc(-c2cccc(Cl)c2)c2cc(C(=O)c3ccoc3)ccc21,192
18,CN(C(=O)Cc1ccc([N+](=O)[O-])cc1)C1c2ccccc2CCC1N1CCCC1 (configuration not stated),135
19,Cc1cc(C)c2c(=O)c(N)coc2c1,120 to 121
20,CC1(C)CCC(C)(C)c2cc(NC(=O)c3ccc(OCCN4CCOCC4)cc3)ccc21,130 to 132

row,SMILES,melting point [°C]
1,COc1ccc(-c2ccc(OC3SCC(O)C(O)C3O)cn2)cn1 (configuration not stated),167
2,CN(C)CCNc1ccc(-c2nn(CC(=O)O)c3ncccc23)cc1,240 to 242
3,CCCCC(=O)Nc1c(C(=O)c2cccc(C)c2)[nH]c2cc(Cl)ccc12,124 to 126
4,CC(C)(C)OC(=O)CN1C(=O)C(NC(=O)Nc2cccc(Cl)c2)CC(c2ccccc2)CC1Cc1ccccc1 (configuration not stated),95 to 110
5,CCCCCCCOC(=O)Cc1nc(-c2ccc(Cl)cc2)oc1-c1ccco1,69 to 70
6,O=C(O)c1cccc(OCCCc2cc(-c3ccc(C(F)(F)F)cc3)no2)c1,133 to 134
7,CNC(=O)NCCn1c(-c2ccc(N3CCOCC3)cc2)csc1=Nc1ccc(F)cc1,191 to 194
8,CC(C)(N)c1ccc(-c2nc(Nc3ccc(-n4ccnn4)cc3)ncc2C#N)cc1,139 to 140
9,OCCCCCCn1nc(-c2ccccc2)c(-c2ccccc2)c1-c1ccccc1,76 to 78
10,CN(C)C(=O)Nc1ccc(OCCc2ccccc2)c(N)c1,125 to 126
11,CN(C)c1ccc2[nH]c(-c3cc(NC(=O)c4cccc(OCCCCCCC(=O)NO)c4)ccc3Cl)nc2c1,140 to 142
12,CS(=O)(=O)c1ccc(-n2nc(C(F)F)cc2-c2nc3cccc(F)c3s2)cc1,193 to 195
13,Oc1ccccc1-c1ccncc1,218 to 220
14,COC(=O)CCNc1ccccc1CNC(=O)C1Cc2ccccc2N1S(=O)(=O)c1ccc(I)cc1 (configuration not stated),67 to 75
15,C1=C(CCc2ccccc2)CCN(Cc2c[nH]c3ccccc23)C1,138 to 140
16,Cc1cc(C(F)(F)F)cc(N(C(N)=O)c2c(Cl)cccc2Cl)n1,165
17,NC(=O)c1cc(-c2ccc(OC(F)(F)F)cc2)c2c3c(ccc2c1)OCO3,188 to 190
18,CCOC(=O)CCCN(C(=O)c1ccc(Cl)cc1)c1cccc2ccc(OC)cc12,92 to 94
